Reference: ChEMBL document CHEMBL1150137, “Nanjiols A-C, new steroids from the Chinese soft coral Nephthea bayeri” (J Nat Prod, 2002)
≈ marks a conversion by molar mass, not a printed value.

System: HL-60
Assay: Cytotoxicity against human HL60 cells
Assay type: functional, cell-based

`CC(=O)O[C@H]1C[C@H]2[C@@H]3CCC4=CC(=O)CC[C@]4(C)[C@H]3C[C@@H](OC(C)=O)[C@]2(C)[C@H]1[C@@](C)(O)CCCC(C)C` [NANJIOL B] was tested, and the IC50 was 5 µg/mL (≈ 9.68 µM).
